Results: publication PMC10439230 (Scientific Reports, 2023)

Experiments:
[1] = system: HL-60 (acute promyelocytic leukemia); assay: Cytotoxic activity assay (XTT); type: cell-based, human; settings: for IC50: Homo sapiens, HL-60, 48 h exposure, XTT, read-out: Cell lines, IC50 (μM) HL-60; for Selectivity Index (SI) values HL-60: SI = IC50 normal cell (MRC-5)/ IC50 cancer cell
From the text: (§1) The synthetic compounds were screened for their cytotoxic activity using standard MTT or XTT methods[30] against a panel of nine human cancer cell lines and one normal cell line, including MDA-MB-231 (triple-negative breast cancer), T-47D (hormone-dependent breast cancer), HepG2 (hepatocellular carcinoma), A549 (lung adenocarcinoma), H69AR (multidrug-resistant small cell lung carcinoma), HuCCA-1 (cholangiocarcinoma derived from a patient), HeLa (cervical carcinoma), and two leukemia cell lines, HL-60 (acute promyelocytic leukemia) and MOLT-3 (T cell acute lymphoblastic leukemia). MRC-5 normal embryonic lung fibroblast cell line was used to represent normal cells. Chemotherapeutic drugs, doxorubicin and etoposide, were used as positive controls.
(§2) The cells were seeded into 96-well plates (100 µL for adherent cells and 75 µL for suspended cells) at a density of 5000–20,000 cells per well, depending on their growth rates. Adherent and suspended cells were then allowed to grow at 37 °C with 95% humidity and 5% CO2 for 24 h and 30 min, respectively. The cytotoxicity assay was initiated by adding an equal volume of cell culture medium containing tested compound at predetermined concentrations. Following 48 h of exposure, cell viability was determined using MTT assay for adherent cells[51],[52]or XTT assay for suspeended cells. Briefly, for adherent cells, 100 µL of the MTT reagent was added to each well, and the microtiter plates were further incubated for 2.5–4 h. The medium was subsequently replaced with 100 µL of DMSO to dissolve the purple formazan before the absorbance at 550 nm was measured using a microplate reader (a SpectraMax Plus 384) with a reference wavelength of 650 nm. For suspended cells, 75 µL of the XTT reagent was added to each well, and the cells were further incubated for 4 h. Afterwards, the absorbance of orange formazan at 492 nm was measured with a reference wavelength of 690 nm using a microplate reader.

[2] = system: MOLT-3 (T cell acute lymphoblastic leukemia); assay: Cytotoxic activity assay (XTT); type: cell-based, human; settings: for IC50: Homo sapiens, MOLT-3, 48 h exposure, XTT, read-out: Cell lines, IC50 (μM) MOLT-3; for Selectivity Index (SI) values MOLT-3: SI = IC50 normal cell (MRC-5)/ IC50 cancer cell
From the text: as §1, §2

[3] = system: MRC-5 normal embryonic lung fibroblast cell line; assay: Cytotoxic activity assay (MTT), normal cells; type: cell-based; settings: Homo sapiens, MRC5, 48 h exposure, read-out: Cell lines, IC50 (μM) MRC-5
From the text: as §1, §2

[4] = system: A549 (lung adenocarcinoma); assay: Cytotoxic activity assay (MTT); type: cell-based, human; settings: for IC50: Homo sapiens, A549, 48 h exposure, MTT, read-out: Cell lines, IC50 (μM) A549; for Selectivity Index (SI) values A549: SI = IC50 normal cell (MRC-5)/ IC50 cancer cell
From the text: as §1, §2

[5] = system: T-47D (hormone-dependent breast cancer); assay: Cytotoxic activity assay (MTT); type: cell-based, human; settings: for IC50: Homo sapiens, T47D, 48 h exposure, MTT, read-out: Cell lines, IC50 (μM) T47-D; for Selectivity Index (SI) values T47-D: SI = IC50 normal cell (MRC-5)/ IC50 cancer cell
From the text: as §1, §2

[6] = system: HepG2 (hepatocellular carcinoma); assay: Cytotoxic activity assay (MTT); type: cell-based, human; settings: for IC50: Homo sapiens, HepG2, 48 h exposure, MTT, read-out: Cell lines, IC50 (μM) HepG2; for Selectivity Index (SI) values HepG2: SI = IC50 normal cell (MRC-5)/ IC50 cancer cell
From the text: as §1, §2

[7] = system: H69AR (multidrug-resistant small cell lung carcinoma); assay: Cytotoxic activity assay (MTT); type: cell-based, human; settings: for IC50: Homo sapiens, H69AR, 48 h exposure, MTT, read-out: Cell lines, IC50 (μM) H69AR; for Selectivity Index (SI) values H69AR: SI = IC50 normal cell (MRC-5)/ IC50 cancer cell
From the text: as §1, §2

[8] = system: HeLa (cervical carcinoma); assay: Cytotoxic activity assay (MTT); type: cell-based, human; settings: for IC50: Homo sapiens, 48 h exposure, MTT, read-out: Cell lines, IC50 (μM) HeLa; for Selectivity Index (SI) values HeLa: SI = IC50 normal cell (MRC-5)/ IC50 cancer cell
From the text: as §1, §2

[9] = system: MDA-MB-231 (triple-negative breast cancer); assay: Cytotoxic activity assay (MTT); type: cell-based, human; settings: for IC50: Homo sapiens, MDA-MB-231, 48 h exposure, MTT, read-out: Cell lines, IC50 (μM) MDA-MB-231; for Selectivity Index (SI) values MDA-MB-231: SI = IC50 normal cell (MRC-5)/ IC50 cancer cell
From the text: as §1, §2

[10] = system: HuCCA-1 (cholangiocarcinoma derived from a patient); assay: Cytotoxic activity assay (MTT); type: cell-based, human; settings: for IC50: Homo sapiens, HuCC-A1, 48 h exposure, MTT, read-out: Cell lines, IC50 (μM) HuCCA-1; for Selectivity Index (SI) values HuCCA-1: SI = IC50 normal cell (MRC-5)/ IC50 cancer cell
From the text: as §1, §2

Compound	IC50 [1] [µM]	Selectivity Index (SI) values HL-60 [1]	IC50 [2] [µM]	Selectivity Index (SI) values MOLT-3 [2]	IC50 [3] [µM]	IC50 [4] [µM]	Selectivity Index (SI) values A549 [4]	IC50 [5] [µM]	Selectivity Index (SI) values T47-D [5]	IC50 [6] [µM]	Selectivity Index (SI) values HepG2 [6]	IC50 [7] [µM]	Selectivity Index (SI) values H69AR [7]	IC50 [8] [µM]	Selectivity Index (SI) values HeLa [8]	IC50 [9] [µM]	Selectivity Index (SI) values MDA-MB-231 [9]	IC50 [10] [µM]	Selectivity Index (SI) values HuCCA-1 [10]
C=C1CCC2C(C)(C)CCCC2(C)C1CCC(C)=CC(=O)O (stereo not shown) [Compound 1, anticopalic acid]	103 ± 10.7	1.6	66.02 ± 0.12	2.5	> 120	159.1 ± 0.78	1.0	> 120	1.0	> 120	1.0	> 120	1.0	145.2 ± 0.31	1.1	> 120	1.0	157.1 ± 0.51	1.0
C=C1CCC2C(C)(C)CCCC2(C)C1CCC(C)=CCO (stereo not shown) [Compound 2, anticopalol]	27.7 ± 0.31	2.0	32.2 ± 1.44	1.7	54.15 ± 0.31	60.52 ± 0.22	0.9	52.33 ± 0.34	1.0	52.33 ± 0.34	1.0	111.9 ± 0.71	0.5	37.49 ± 0.04	1.4	31.77 ± 0.13	1.7	51.5 ± 0.24	1.1
C=C1CCC2C(C)(C)CCC[C@]2(C)[C@H]1CC/C(C)=C/C=O (stereo partly drawn) [Compound 3, (E)-3-methyl-5-((1S,8aS)-5,5,8a-trimethyl-2-methylenedecahydronaphthalen-1-yl)pent-2-enal]	56.4 ± 1.37	2.2	37.7 ± 3.2	3.3	125.8 ± 0.46	142 ± 2.69	0.9	93.9 ± 1.54	1.3	122.2 ± 1.03	1.0	> 120	0.7	77.4 ± 1.47	1.6	64.1 ± 1.8	2.0	131.4 ± 1.14	1.0
C=C1CC[C@H]2C(C)(C)CCC[C@]2(C)[C@H]1CC/C(C)=C/C(=O)NC [Compound 4a, (E)-N,3-Dimethyl-5-((1S,4aS,8aS)-5,5,8a-trimethyl-2-methylenedecahydro-naphthalen-1-yl)pent-2-enamide]	24.7 ± 1.41	2.3	25.5 ± 0.7	2.2	55.9 ± 0.19	65.1 ± 3.57	0.9	73.4 ± 2.06	0.8	73.4 ± 2.06	0.8	122 ± 3.48	0.5	47.7 ± 1.08	1.2	29.9 ± 0.71	1.9	62.9 ± 1.36	0.9
C=CCNC(=O)/C=C(\C)CC[C@H]1C(=C)CC[C@H]2C(C)(C)CCC[C@]12C [Compound 4b, (E)-N-Allyl-3-methyl-5-((1S,4aS,8aS)-5,5,8a-trimethyl-2-methylenedeca-hydronaphthalen-1-yl)pent-2-enamide]	22.7 ± 0.84	6.4	25.4 ± 0.51	5.7	> 120	> 120	1.0	> 120	1.0	107 ± 1.28	1.4	> 120	1.0	79.61 ± 0.49	1.8	114.3 ± 0.72	1.3	> 120	1.0
C#CCNC(=O)/C=C(\C)CC[C@H]1C(=C)CC[C@H]2C(C)(C)CCC[C@]12C [Compound 4c, (E)-3-Methyl-N-(prop-2-yn-1-yl)-5-((1S,4aS,8aS)-5,5,8a-trimethyl-2-methylenedecahydronaphthalen-1-yl)pent-2-enamide]	24.13 ± 0.08	2.0	23.2 ± 1.03	2.1	48.1 ± 0.62	54.1 ± 1.17	0.9	76.6 ± 4.68	0.6	85.06 ± 0.61	0.6	113 ± 1.35	0.4	28.1 ± 0.93	1.7	27.5 ± 0.62	1.8	52.7 ± 0.11	0.9
C=C1CC[C@H]2C(C)(C)CCC[C@]2(C)[C@H]1CC/C(C)=C/C(=O)NCCCCCCCC [Compound 4d, (E)-3-Methyl-N-octyl-5-((1S,4aS,8aS)-5,5,8a-trimethyl-2-methylenedecahydronaphthalen-1-yl)pent-2-enamide]	> 120	1.0	> 120	1.0	> 120	> 120	1.0	> 120	1.0	> 120	1.0	> 120	1.0	> 120	1.0	> 120	1.0	> 120	1.0
C=C1CC[C@H]2C(C)(C)CCC[C@]2(C)[C@H]1CC/C(C)=C/C(=O)NCC(=O)O [Compound 4s, ((E)-3-methyl-5-((1S,4aS,8aS)-5,5,8a-trimethyl-2-methylenedecahydro-naphthalen-1-yl)pent-2-enoyl)glycine]	75.1 ± 3.24	1.8	84.14 ± 0.09	1.6	> 120	> 120	1.0	> 120	1.0	–	–	> 120	1.0	> 120	1.0	> 120	1.0	> 120	1.0
COc1cccc2c1C(=O)c1c(O)c3c(c(O)c1C2=O)C[C@@](O)(C(=O)CO)C[C@@H]3O[C@H]1C[C@H](N)[C@H](O)[C@H](C)O1 [DOX, doxorubicin, reference compound]	–	–	–	–	0.76 ± 0.05	0.38 ± 0.03	2.0	0.47 ± 0.03	1.6	0.4 ± 0.02	1.9	38.08 ± 0.29	–	0.48 ± 0.01	1.6	2.7 ± 0.16	0.3	0.78 ± 0.06	1.0
COc1cc([C@@H]2c3cc4c(cc3[C@@H](O[C@@H]3O[C@@H]5CO[C@@H](C)O[C@H]5[C@H](O)[C@H]3O)[C@H]3COC(=O)[C@H]23)OCO4)cc(OC)c1O [ETO, etoposide, reference compound]	1.21 ± 0.15	–	0.07 ± 0.12	–	–	–	–	–	–	–	–	–	–	–	–	–	–	–	–
